Patent publication US20040259925A1, “Pharmaceutical compositions and methds for the prevention or treatment of cardiovascular, cardiopulmonary, pulmonary or renal diseases” (Boehringer Ingelheim Pharma GmbH & Co. KG, priority 2003, published 2004)

Tests used:
[1] = Dissolution of active substances from Tablet 3; format: physicochemical
From the text: This combination of active substances and excipients was then compressed with a suitable tablet press (e.g. Korsch EK0 or Fette P1200) to form tablets.

[2] = molecular target: T1, human PPARgamma-ligand binding domain (LBD) (Homo sapiens, UniProt P37231); assay: SPA assay: displacement of 3H-labelled rosiglitazone from GST-PPARgamma-LBD; details: for MW (SPA signal, bound 3H-rosiglitazone): 30 nM 3H-rosiglitazone, NSB 217, Bmax 911; for displacement of the radioactive rosiglitazone from the binding pocket: very large excesses of test substance
T1 sequence (P37231 205-505): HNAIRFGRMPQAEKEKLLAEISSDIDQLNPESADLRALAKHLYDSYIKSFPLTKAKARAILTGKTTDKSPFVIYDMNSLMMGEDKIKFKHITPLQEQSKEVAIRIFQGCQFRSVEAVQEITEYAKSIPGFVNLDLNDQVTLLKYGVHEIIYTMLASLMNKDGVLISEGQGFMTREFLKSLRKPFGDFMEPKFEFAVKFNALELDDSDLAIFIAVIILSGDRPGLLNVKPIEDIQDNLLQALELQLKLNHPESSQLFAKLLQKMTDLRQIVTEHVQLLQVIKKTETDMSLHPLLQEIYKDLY
T1 sequence (P19793 220-461 partner): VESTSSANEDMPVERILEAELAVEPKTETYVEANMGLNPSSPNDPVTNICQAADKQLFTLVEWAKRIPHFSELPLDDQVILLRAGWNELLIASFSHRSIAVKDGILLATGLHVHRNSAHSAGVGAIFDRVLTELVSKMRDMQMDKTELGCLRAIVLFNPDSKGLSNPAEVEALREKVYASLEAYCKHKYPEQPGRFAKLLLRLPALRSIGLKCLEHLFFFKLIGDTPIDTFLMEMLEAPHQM
Method: Protein containing the human PPARgamma-ligand binding domain (LBD) was prepared as a GST fusion protein in E. coli and purified by affinity chromatography. To do this, a DNA section which codes for the amino acids 205-505 of the human PPARgamma2 transcription factor (cf. Genbank entry U79012) was subcloned via the additionally inserted restriction cutting sites BamH I and Xho I into the expression vector pGEX-4T-1 (Amersham) and the sequence of the section was monitored. […] The bacteria were pelleted after the induction and frozen in batches in PBS, pH 7.4. After opening up in a French Press, the dissolved GST-PPARgamma-LBD-fusion protein was purified using a GSTrap column (Pharmacia). Elution was carried out by the addition of 20 mM reduced glutathione. The GST-PPARgamma-LBD-protein fractions were desalinated using a HiTrap desalting column (Pharmacia) and the protein concentration was determined using a standard assay. Protein containing the human RXRalpha ligand binding domain (LBD) was prepared as a His tag fusion protein in E. coli and purified by affinity chromatography. To do this a DNA section which codes for the amino acids 220-461 of the human RXRalpha transcription factor (cf. Genbank entry NM_002957, nt 729-1457) was subcloned via the additionally introduced restriction cutting sites BamH I and Not I into the expression vector pET28c (Novagen) and the sequence of the section was monitored. […] The bacteria were pelleted after the expression and frozen in batches in PBS, pH 7.4. After opening up in a French Press, the dissolved His-RXRalpha-LBD-fusion protein is purified using a HiTrap chelating column (Pharmacia). Elution was carried out using a 500 mM imidazole step. The His-RXRalpha-LBD protein fractions were desalinated using a HiTrap desalting column (Pharmacia) and the protein concentration was determined using a standard assay. A description of the SPA assay format can be found in Mukherjee R et al., J Steroid Biochem Mol Biol (2002) 81:217-225. The assay buffer consisted of 20 mM Tris pH 7.5, 25 mM KCl, 10 mM DTT, 0.2% Triton X-100).

[3] = molecular target: T2, ligand binding domain of the human PPARgamma2 transcription factor fused to yeast GAL4 DNA binding domain (Homo sapiens, UniProt P37231); assay: Luciferase activity in stably transformed PPARgamma reporter cell line (CHO-K1 clone 11); format: cell-based; details: for MW (luciferase activity): 24 hours
T2 construct: codes for amino acids 205-505 of the human PPARgamma2 transcription factor; expressed in transfected cells
T2 sequence (P37231 205-505): T1 sequence (P37231 205-505)
From the text: The cells used are CHO cells which are the result of transformation with two gene constructs.
The resulting plasmid pFA-CMV/hPPARgamma2-LBD codes N-terminally of the PPARgamma-LBD in the same reading frame for a Gal4 DNA binding domain. In addition the plasmid codes for neomycin resistance.
The cell line CHO-K1 (ATCC CCL-61) was cotransfected with the plasmids pFA-CMV/hPPARgamma2-LBD and pFR-Luc (Stratagene). pFR-Luc codes for the luciferase gene under the control of a five-times repeated yeast Gal4 binding site. The transfection was carried out with lipofectamine2000 in accordance with the manufacturer's instructions.
After six days' cultivation the cells were passaged and kept in culture for another 10 days. The resulting neomycin-resistant colonies were picked out under the microscope and transferred into 96 well dishes and cultured.
The test substances were brought to 100 times the desired concentration with a suitable solvent, e.g. DMSO, and diluted 1:100 with the medium placed in the cell culture plate. The solvent used, e.g. DMSO, was used as the background control in the same concentration.
Luminescence was measured after a five minute wait using a Packard TopCount NXT. The luciferase activity was obtained by integrating the relative luciferase units (RLU) of the first ten seconds after the start of measurement.

[4] = molecular target: T3, human PPARgamma-ligand binding domain (LBD) (Homo sapiens, UniProt P37231); assay: AlphaScreen: recruiting of biotinylated LXXLL peptide of cofactor CBP by GST-PPARgamma-LBD; format: biochemical; details: for direct activation of the PPARgamma-LBD / recruiting of the LXXLL peptide: concentrations of up to 50 μM; for MW (AlphaScreen signal): 4 hours
T3 construct: codes for the amino acids 205-505 of the human PPARgamma2 transcription factor; made in house; host or cells: E. coli BL21(DE3), vector pGEX-4T-1
T3 sequence (P37231 205-505): T1 sequence (P37231 205-505)
Method: Protein containing the human PPARgamma-ligand binding domain (LBD) was prepared as a GST fusion protein in E. coli and purified by affinity chromatography. […] The fusion protein was expressed in the E. coli strain BL21(DE3) recommended for pGEX vectors after induction with 0.2 mM IPTG for 4 hours at 25° C. The bacteria were pelleted after the induction and frozen in batches in PBS, pH 7.4. After opening up in a French Press, the dissolved GST-PPARgamma-LBD-fusion protein was purified using a GSTrap column (Pharmacia). Elution was carried out by the addition of 20 mM reduced glutathione. The GST-PPARgamma-LBD-protein fractions were desalinated using a HiTrap desalting column (Pharmacia) and the protein concentration was determined using a standard assay.
The assay buffer consisted of 25mM Hepes pH7.4, 100 mM NaCl, 1 mM DTT, 0.1% Tween-20, 0.1% BSA. […] The final DMSO concentration in the assay was 1% (v/v). A 1% DMSO solution was used as the background control (NSB). The measurement was done using a Packard fusion measuring device.

Structure (SMILES) | MW (SPA signal, bound 3H-rosiglitazone) ([2]; test substance 1.00E−04 M) | MW (SPA signal, bound 3H-rosiglitazone) ([2]; test substance 1.00E−05 M) | MW (SPA signal, bound 3H-rosiglitazone) ([2]; test substance 1.00E−06 M) | MW (SPA signal, bound 3H-rosiglitazone) ([2]; test substance 1.00E−07 M) | MW (SPA signal, bound 3H-rosiglitazone) ([2]; test substance 3.00E−05 M) | MW (SPA signal, bound 3H-rosiglitazone) ([2]; test substance 3.00E−06 M) | MW (SPA signal, bound 3H-rosiglitazone) ([2]; test substance 3.00E−07 M) | displacement of the radioactive rosiglitazone from the binding pocket [2] | activation of the PPARgamma pathway in the PPARgamma reporter cell line [3] | MW (luciferase activity) ([3]; test substance 1.00E−04 M) [RLU] | MW (luciferase activity) ([3]; test substance 1.00E−05 M) [RLU] | MW (luciferase activity) ([3]; test substance 1.00E−06 M) [RLU] | MW (luciferase activity) ([3]; test substance 3.00E−05 M) [RLU] | MW (luciferase activity) ([3]; test substance 3.00E−06 M) [RLU] | MW (luciferase activity) ([3]; test substance 3.00E−07 M) [RLU] | direct activation of the PPARgamma-LBD / recruiting of the LXXLL peptide [4] | further results
NS(=O)(=O)c1cc2c(cc1Cl)NCNS2(=O)=O [hydrochlorothiazide] | – | – | – | – | – | – | – | – | – | – | – | – | – | – | – | – | dissolved after 30 minutes ([1]; Tablet 3, first batch, 900 ml 0.1 M HCl, 100 rpm): 69±6.3%; dissolved after 30 minutes ([1]; Tablet 3, second batch, 900 ml 0.1 M HCl, 100 rpm): 72±2.1%; dissolved after 30 minutes ([1]; Tablet 3, third batch, 900 ml 0.1 M HCl, 100 rpm): 78±1.8%
CCCCC1=NC2(CCCC2)C(=O)N1Cc1ccc(-c2ccccc2-c2nnn[nH]2)cc1 [irbesartan] | 510 | 723 | 815 | 913 | 648 | 779 | 810 | no concentration-dependent displacement | only at higher test concentrations and to a lesser extent | 29600 | 3292 | 657 | 22133 | 1028 | 491 | did not result in any direct activation of the PPARgamma-LBD | –
CCCCc1nc(Cl)c(CO)n1Cc1ccc(-c2ccccc2-c2nn[nH]n2)cc1 [losartan] | 611 | 787 | 901 | 915 | 784 | 814 | 835 | no concentration-dependent displacement | only at higher test concentrations and to a lesser extent | 11322 | 709 | 589 | 3271 | 672 | 874 | did not result in any direct activation of the PPARgamma-LBD | –
CCCc1nc2c(C)cc(-c3nc4ccccc4n3C)cc2n1Cc1ccc(-c2ccccc2C(=O)[O-])cc1.[Na+] [telmisartan sodium salt] | – | – | – | – | – | – | – | – | – | – | – | – | – | – | – | – | dissolved after 30 minutes ([1]; Tablet 3, first batch, 900 ml 0.1 M phosphate buffer pH 7.5, 75 rpm): 92±1.5%; dissolved after 30 minutes ([1]; Tablet 3, second batch, 900 ml 0.1 M phosphate buffer pH 7.5, 75 rpm): 96±1.8%; dissolved after 30 minutes ([1]; Tablet 3, third batch, 900 ml 0.1 M phosphate buffer pH 7.5, 75 rpm): 100±1.0%
CCCc1nc2c(C)cc(-c3nc4ccccc4n3C)cc2n1Cc1ccc(-c2ccccc2C(=O)O)cc1 [telmisartan, 4′-[2-n-propyl-4-methyl-6-(1-methylbenzimidazol-2-yl)-benzimidazol-1-ylmethyl]-biphenyl-2-carboxylic acid] | 545 | 703 | 818 | 837 | 691 | 818 | 802 | no concentration-dependent displacement | particularly potent activation | – | 61397 | 2859 | 58790 | 24498 | 760 | did not result in any direct activation of the PPARgamma-LBD | MW (AlphaScreen signal) ([4]; test substance 1.00E−05 M): 847; MW (AlphaScreen signal) ([4]; test substance 1.00E−06 M): 677; MW (AlphaScreen signal) ([4]; test substance 1.00E−07 M): 606; MW (AlphaScreen signal) ([4]; test substance 3.00E−06 M): 720; MW (AlphaScreen signal) ([4]; test substance 3.00E−07 M): 644; MW (AlphaScreen signal) ([4]; test substance 3.00E−08 M): 642; MW (AlphaScreen signal) ([4]; test substance 5.00E−05 M): 1111
